Measured values taken from patent US20200087625A1, “METHODS FOR ISOLATING, EXPANDING AND ADMINISTERING CANCER SPECIFIC CD8+ T CELLS” (priority 2017, published 2020).

Tested on: 4T1 cells
Assay: Secondary (orthotopic) 4T1 challenge after 1V270 therapy
Type: in vivo, BALB/c mice
Text: FIGS. 24A-24G. Tumor infiltrating T cells in 1V270 treated mice show high clonalities and increased frequency of intra- and inter-individual common clones (A) Experimental protocols of the secondary challenge studies. Two groups of BALB/c mice (n=5/group) were i.p, treated with 1V270. One cohort of mice was i.v. injected with 4T1-GLF cells (2×10^4) on day 0 and tumor growth in the lungs was monitored by IVIS on day 20. […] Native BALB/c mice served as controls. 4T1 cells were orthotopically inoculated on day 21. (B) Tumor growth was measured with a caliper and calculated using the formula: volume (mm3)=(width)2×length/2. (C) TILs s were isolated from the secondarily challenged tumor on day 39 and stained for CD8^+ T cells (CD3^+CD8^+) and PD-1. The numbers of tumor-infiltrating cos• T cells were expressed per tumor volume (mm^3). Data are representative of 2 independent experiments showing similar results. Results were analyzed by the Mann-Whitney U test comparing the 1V270 treatment groups against the vehicle treated group. **P<0.01. (D·G) TCR repertoire of CD8^+ T cells from TILs s and splenocytes were examined. (D) The clonality index (1-normalized Shannon index) of CD8^+ T cells infiltrating to the left side of the secondarily challenged tumor was plotted against tumor volume in the tumor exposed mice. Correlation between the clonality index and the tumor volume was evaluated by Pearson's method (R^2=0.97, p<0.05).
FIGS. 26A-26D. Intranasally administered 1V270 inhibits pulmonary colonization in experimental metastasis models (A) Protocol for testing the therapeutic efficacy of i.n. treatment with 1V270 in IV metastasis model. BALB/c mice (n=6-8/group) were i.n. administered with 1V270 (20 or 200 μg) or vehicle on days −3, −1, 3, 7, and 10. 4T1 cells were v. injected on day 0. (B) The numbers of lung nodules were counted on Day 21. *P<0.05 calculated by Kruskal-Wallis test with Dunn's post hoc test. (C) Intranasal 1V270 therapy attenuated the growth of secondarily challenged tumors. BALB/c mice (n=S) were i.n. treated with 200 μg 1V270 on days −3, −1, 3, 7 and 10. 4T1 cells were injected on day 0. On day 21, the surviving mice were orthotopically inoculated with 4T1 cells and tumor growth was monitored. The mice treated with 1V270 without i.v. tumor cell injection served as controls. (D) TILs were isolated from the secondarily challenged tumor, and the numbers of CD8^+ T cells and PD-1 expressing CD8^+ T cells were analyzed by flow cytometric assay. Data were analyzed by the Mann-Whitney U test comparing two groups. *P<0.05. Data are representative of 2 independent experiments showing similar results.
In the spontaneous metastasis model, othotopically implanted tumor cells spontaneously form lung metastases within three weeks after implantation. 5×10^5 4T1 cells were inoculated in both sides of the 4th mammary pads of female BALB/c mice. Tumor length and width were recorded, and tumor volumes were calculated using the formula: volume (mm^3)=(width)^2×length/2. On day 28, mice were euthanized and the lungs were stained with intratracheally injected India ink and destained in Fekete's solution to count tumor nodules. In the experimental metastasis model, 2×10^4 4T1 cells were i.v. injected. On day 21, mice were euthanized and tumor nodules in lungs were counted as described above. In the secondary challenge experiment, 1V270 treated-mice without tumor signals in the lungs on day 21 of the experimental metastasis protocol were included. 5×10^5 4T1 cells were inoculated in both sides of the 4th mammary p ads. Tumor length and width were recorded, and tumor volumes were calculated similar with
To validate that 1V270 therapy induced tumor-specific adaptive immune responses, we monitored the growth of secondarily challenged tumors following prior 1V270 treatment. The mice treated with 1V270 using the IV metastasis protocol were orthotopically re-challenged with 4T1 cells on day 21 (FIG. 24A). […]

[1] = intranasal 1V270, tumor-exposed vs no tumor exposure or naive

SMILES: CCCCCCCCC=CCCCCCCCC(=O)OCC(COP(=O)(O)OCCNC(=O)c1ccc(Cn2c(=O)[nH]c3c(N)nc(OCCOC)nc32)cc1)OC(=O)CCCCCCCC=CCCCCCCCC (stereo not shown) [1V270]
- numbers of CD8+ T cells in TILs (1V270-treated tumor-exposed vs 1V270-treated no-tumor exposed mice): Three-fold higher
- growth of secondarily challenged tumor (i.p. 1V270-treated and tumor-exposed mice vs naive or no-tumor exposed mice): significantly impaired
- growth of secondarily challenged tumor (i.p. 1V270-treated no-tumor exposed mice vs naive mice): no difference in the tumor growth
- re-challenged tumor growth (intranasal 1V270, tumor-exposed mice): significantly inhibited
- number of CD8+ T cells in TILs [1]: A higher number
- number of PD-1+CD8+ T cells in TILs [1]: A higher number
- CD8+ T cells in TILs positive for PD-1 (secondarily challenged tumor): more than 80%
